Experimental data published in US7422846B2, “Natural ligand for orphan G protein coupled receptor GPR86 and methods of use” (Euroscreen S.A, priority 2001, dated 2008).
Like-named read-outs stand apart in the source and are kept apart here.

Assays:
[1] = target: T1, GPR86 (P2Y13) human receptor (Homo sapiens, UniProt Q9BPV8, T179M); experiment: IP3 accumulation in 1321N1 cells (AG32) expressing GPR86 (P2Y13) together with Gα16; type: cell-based; design: expressed in transfected cells; host or cells: 1321N1 astrocytoma clone AG32 (stably expressing Gα16 from pERAEQ2), G418-selected; conditions: for IP3 response to nucleotides: 100 μM for 30 s, pool of G418-resistant clones expressing GPR86 and Gα16; for IP3 responses after treatment of the nucleotide solutions with CPK and CP (ATP-regenerating system): 1 mM solutions, 20 units/ml CPK, 10 mM CP, 90 min, FIG. 4B; for agonist character at human P2Y13 receptor: after creatinephosphate and creatinephosphokinase treatment; for effect on IP3 accumulation: 100 nM and 10 μM
T1 sequence (Q9BPV8 22-354 T179M): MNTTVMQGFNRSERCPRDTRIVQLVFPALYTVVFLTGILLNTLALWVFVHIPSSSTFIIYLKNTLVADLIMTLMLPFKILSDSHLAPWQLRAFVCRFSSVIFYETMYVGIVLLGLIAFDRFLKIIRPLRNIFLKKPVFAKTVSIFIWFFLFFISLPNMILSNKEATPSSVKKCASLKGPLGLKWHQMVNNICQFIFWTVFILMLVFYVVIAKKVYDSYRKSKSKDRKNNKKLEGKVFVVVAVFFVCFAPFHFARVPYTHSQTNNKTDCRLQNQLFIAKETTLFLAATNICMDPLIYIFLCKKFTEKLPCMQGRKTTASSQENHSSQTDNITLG
Method: Cells of the invention, for example, 1321N1 cells, are labelled for 24 hours with 10 μCi/ml [^3H] inositol in inositol free DMEM containing 5% FCS, antibiotics, amphotericin, sodium pyruvate and 400 μg/ml G418. Cells are incubated for 2 h in Krebs-Ringer Hepes (KRH) buffer of the following composition (124 mM NaCl, 5 mM KCl, 1.25 mM MgSO4, 1.45 mM CaCl2, 1.25 mM KH2PO4, 25 mM Hepes (pH: 7.4) and 8 mM glucose). The cells are then challenged with various nucleotides for 30 s. The incubation is stopped by the addition of an ice cold 3% perchloric acid solution. IP are extracted and separated on Dowex columns as previously described (25). 2MeSATP and ATP solutions (1 mM) are treated at room temperature with 20 units/ml CPK and 10 Mm cp for 90 min to circumvent problems arising from the contamination and degradation of triphosphate nucleotide solutions.
CHO-K1 and 1321N1 cells were transfected with the recombinant GPR86-pEFIN5 plasmid or with the plasmid alone using the FuGENE™6 transfection reagent (Roche Molecular Biochemicals). A clone called AG32 corresponding to 1321N1 cells previously transfected with pERAEQ2 plasmid encoding Gα16 (provided by Euroscreen), was transfected. The CHO-K1 and 1321N1 transfected cells were selected with 400 μg/ml G418 in complete medium (10% FBS, 100 units/ml penicillin, 100 μg/ml streptomycin and 2.5 μg/ml amphotericin B in respectively Ham's F12 or DMEM (Dulbecco's modified Eagle's) medium) two days after transfection and maintained in the same medium. The AG32 cells were maintained in the same DMEM complete medium supplemented with 500 μg/ml zeocin.
The pool of G418-resistant clones was tested for its functional IP3 response to several nucleotides, according to the method described above. The cells were challenged by various nucleotides at a concentration of 100 μM for 30 s: ATP, ADP, UTP, UDP, ITP, IDP, TDP.
Concentration-action curves for ADP, 2MeSADP and ADPβS. […] 1321N1 transfected cells were incubated in the presence of various concentrations of ADP, 2MeSADP and ADPβS for 30 s. The data represent the mean±S.D. of triplicate experimental points obtained in one representative experiment of three.
AG32 cells were seeded (200,000 cells per dish) on 35 mm (diameter) Petri dishes and labeled for 24 h with 5 μCi/ml [3H]-myoinositol in inositol free DMEM containing 5% fetal calf serum, antibiotics, amphotericin, sodium pyruvate, and 400 μg/ml of G418. Cells were incubated for 2 h in Krebs-Ringer Hepes (KRH) buffer (124 mM NaCl, 5 mM KCl, 1.25 mM MgSO4, 1.45 mM CaCl2, 1.25 mM KH2PO4, 25 mM Hepes (pH 7.4) and 8 mM D-glucose). The cells were then incubated in presence of ADP, ATP or 2MeSATP for 30 s. The incubation was stopped by the addition of 1 ml of an ice-cold 3% perchloric acid solution. Prior to the stimulation, ATP and 2MeSATP (1 mM solutions) were incubated for 90 min at room temperature with 20 units/ml creatine phosphokinase (CPK) and 10 mM creatine phosphate (CP). The reaction was stopped by addition of 10 mM iodoacetamide.
AG32 cells were seeded (200,000 cells per dish) on 35 mm (diameter) Petri dishes and labeled for 24 h with 5 μCi/ml [^3H]-myoinositol in inositol free DMEM containing 5% fetal calf serum, antibiotics, amphotericin, sodium pyruvate, and 400 μg/ml of G418. Cells were incubated for 2 h in Krebs-Ringer Hepes (KRH) buffer (124 mM NaCl, 5 mM KCl, 1.25 mM MgSO4, 1.45 mM CaCl2, 1.25 mM KH2PO4, 25 mM Hepes (pH 7.4) and 8 mM D-glucose). The cells were then incubated in presence of two different concentrations (100 nM and 10 μM) of ADP or ApnA (n=3-6) for 30 s. The incubation was stopped by the addition of 1 ml of an ice-cold 3% perchloric acid solution.
AG32 cells were seeded (200,000 cells per dish) on 35 mm (diameter) Petri dishes and labeled for 24 h with 5 μCi/ml [^3H]-myoinositol in inositol free DMEM containing 5% fetal calf serum, antibiotics, amphotericin, sodium pyruvate, and 400 μg/ml of G418.

[2] = target: T1, GPR86 (P2Y13) human receptor; experiment: Western blot of phosphorylated Erk1 and Erk2 in GPR86-transfected CHO-K1 cells; type: cell-based; design: expressed in transfected cells; conditions: pertussis toxin 100 ng/ml for 18 h; agonist 1 μM, 5 or 30 minutes
Method: To investigate changes in the activation status of the MAP kinases Erk1 and Erk2 upon stimulation of the human GPR86 receptor, whole CHO-K1 transfected cell extracts were analysed by Western blotting using a specific antibody for the dually phosphorylated kinases (at Thr^202 and Tyr^204), which are the active forms of Erk. Western Blot Analysis of phosphorylated Erk1 and Erk2 proteins.
GPR86-transfected CHO-K1 cells were seeded at 1.5×10^6 cells/dish. After 24 h, the cells were serum-starved for 2 h in KRH buffer. After stimulation with the agonist, the cells were scraped in 1 ml of PBS pH 7.3 (137 mM NaCl, 2.7 mM KCl, 4.3 mM Na2HPO4.7H2O and 1.4 mM KH2PO4). The cells were recovered by centrifugation and lysed in 150 μl of Laemmli buffer (10% (w/v) glycerol, 5% (v/v) mercaptoethanol, 2.3% (w/v) SDS, 62.5 mM Tris-HCl pH 6.8). The protein concentration was determined using the method of Minamide and Bamburg (27). The same amount of protein for each condition was electrophoresed in a 12% SDS-polyacrylamide gel. Proteins were then transferred overnight at 60 V and 4° C. onto a nitrocellulose membrane using 20 mM Tris, 154 mM glycine, 20% (v/v) methanol as a transfer buffer. Immunodetection was achieved using the enhanced chemiluminescence Western blotting detection system (ECL, Amersham Phammacia Biotech) using a biotinylated-secondary mouse antibody ( 1/25,000). The monoclonal antibody specific for the dually phosphorylated forms of Erk1 and Erk2 (at Thr^202 and Tyr^204) was used at 1/1000-dilution.
In CHO-K1 cells, phosphorylated Erk1 and Erk2 had the predicted molecular mass of 44 and 42 kDa, respectively. […] GPR86-transfected CHO-K1 cells were stimulated during different times or with various concentrations of ADP and 2MeSADP or water (CONT). The effect of 100 ng/ml pertussis toxin (PTx) has been tested at 5 and 30 min in the presence of 1 μM ADP or 2MeSADP. Blotting and immunodetection were achieved as described using the enhanced chemiluminescence Western blotting detection system (ECL, Amersham Pharmacia Biotech).

[3] = AG32 cells, nucleotides pretreated with creatine phosphokinase and creatine phosphate, 30 s, read-out: EC50, stimulation of GPR86 receptor activity ([3H]IP3)
[4] = 1321N1 cells expressing GPR86 and Gα16

Compound: CSc1nc(N)c2ncn([C@@H]3O[C@H](COP(=O)(O)OP(=O)(O)OP(=O)(O)O)[C@@H](O)[C@H]3O)c2n1 [2MeSATP, 2-methylthio-ATP]
- IP3 response to nucleotides [1]: responses were lost after HPLC-purification
- IP3 responses after treatment of the nucleotide solutions with CPK and CP (ATP-regenerating system) [1]: abolished
- agonist character at human P2Y13 receptor ([1]; AG32 cells): partial agonists
- EC50 [1, 3]: 1500 ± 200 nM

Compound: Nc1ncnc2c1ncn2[C@@H]1O[C@H](COP(=O)(O)O)[C@@H](O)[C@H]1OP(=O)(O)O [A2P5P, adenosine 2′,5′-diphosphate]
- IP3 response [1, 4]: No IP3 response

Compound: Nc1ncnc2c1ncn2[C@@H]1O[C@H](COP(=O)(O)O)[C@@H](OP(=O)(O)O)[C@H]1O [A3P5P, adenosine 3′,5′-diphosphate]
- IP3 response [1, 4]: No IP3 response

Compound: Nc1ncnc2c1ncn2[C@@H]1O[C@H](COP(=O)(O)OS(=O)(=O)O)[C@@H](OP(=O)(O)O)[C@H]1O [A3P5PS, adenosine 3′-phosphate 5′-phosphosulfate]
- IP3 response [1, 4]: No IP3 response

Compound: Nc1ncnc2c1ncn2[C@@H]1O[C@H](COP(=O)(O)OP(=O)(O)OP(=O)(O)O)[C@@H](O)[C@H]1O [ATP]
- IP3 response to nucleotides [1]: responses were lost after HPLC-purification
- IP3 responses after treatment of the nucleotide solutions with CPK and CP (ATP-regenerating system) [1]: abolished
- agonist character at human P2Y13 receptor ([1]; AG32 cells): partial agonists
- EC50 [1, 3]: 4200 ± 800 nM

Compound: Nc1ncnc2c1ncn2[C@@H]1O[C@H](COP(=O)(O)OP(=O)(O)OP(=O)(O)OC[C@H]2O[C@@H](n3cnc4c(N)ncnc43)[C@H](O)[C@@H]2O)[C@@H](O)[C@H]1O [Ap3A]
- effect on IP3 accumulation ([1]; AG32 cells, 30 s): almost equal to that of ADP

Compound: Nc1ncnc2c1ncn2[C@@H]1O[C@H](COP(=O)(O)OP(=O)(O)OP(=O)(O)OP(=O)(O)OC[C@H]2O[C@@H](n3cnc4c(N)ncnc43)[C@H](O)[C@@H]2O)[C@@H](O)[C@H]1O [Ap4A]
- effect on IP3 accumulation ([1]; AG32 cells, 30 s): inactive

Compound: Nc1ncnc2c1ncn2[C@@H]1O[C@H](COP(=O)(O)OP(=O)(O)OP(=O)(O)OP(=O)(O)OP(=O)(O)OC[C@H]2O[C@@H](n3cnc4c(N)ncnc43)[C@H](O)[C@@H]2O)[C@@H](O)[C@H]1O [Ap5A]
- effect on IP3 accumulation ([1]; AG32 cells, 30 s): inactive

Compound: Nc1ncnc2c1ncn2[C@@H]1O[C@H](COP(=O)(O)OP(=O)(O)OP(=O)(O)OP(=O)(O)OP(=O)(O)OP(=O)(O)OC[C@H]2O[C@@H](n3cnc4c(N)ncnc43)[C@H](O)[C@@H]2O)[C@@H](O)[C@H]1O [Ap6A]
- effect on IP3 accumulation ([1]; AG32 cells, 30 s): inactive

Compound: O=c1[nH]cnc2c1ncn2[C@@H]1O[C@H](COP(=O)(O)OP(=O)(O)O)[C@@H](O)[C@H]1O [IDP]
- IP3 response to nucleotides [1]: induced an IP3 response

Compound: O=c1[nH]cnc2c1ncn2[C@@H]1O[C@H](COP(=O)(O)OP(=O)(O)OP(=O)(O)O)[C@@H](O)[C@H]1O [ITP]
- IP3 response to nucleotides [1]: No IP3 response

Compound: Cc1cn([C@H]2C[C@H](O)[C@@H](COP(=O)(O)OP(=O)(O)O)O2)c(=O)[nH]c1=O [TDP]
- IP3 response to nucleotides [1]: No IP3 response

Compound: O=c1ccn([C@@H]2O[C@H](COP(=O)(O)OP(=O)(O)O)[C@@H](O)[C@H]2O)c(=O)[nH]1 [UDP]
- IP3 response to nucleotides [1]: induced an IP3 response

Compound: O=c1ccn([C@@H]2O[C@H](COP(=O)(O)OP(=O)(O)OP(=O)(O)O)[C@@H](O)[C@H]2O)c(=O)[nH]1 [UTP]
- IP3 response to nucleotides [1]: No IP3 response

Compound: Poly[A]
- activity on human GPR86 after creatinephosphate/creatinephosphokinase treatment ([1]; AG32 cells, 30 s, FIG. 10): still able to activate GPR86
- EC50 ([1]; AG32 cells, after creatinephosphate/creatinephosphokinase treatment, concentration in AMP equivalent, read-out: EC50, activation of GPR86 ([3H]IP3)): 205000 ± 60000 nM

Compound: adenosine 5′-O-(2-thiodiphosphate) [ADPβS]
- EC50 ([1]; 1321N1 cells expressing GPR86 and Gα16, 30 s, mean±S.D. of three independent experiments, read-out: EC50, IP3 accumulation): 48.4 ± 0.4 nM

Compound: pertussis toxin
- inhibition of the ADP response (IP3) ([1]; ADP 300 nM, 18 hours pretreatment with 100 ng/ml pertussis toxin, mean±range of two independent experiments): 86±8%
- effect on Erk phosphorylation induced by ADP or 2-MeSADP [2]: strongly inhibited
